Reference: US7087762B2, “Long-lasting antimicrobial reaction product of allantoin and formaldehyde containing a low level of free formaldehyde” (ISP Investments Inc., priority 2002, dated 2006)

Key:
BC (B. cepacia) [1] = assay: Preservative challenge test, nonionic emulsion; assay type: cell-based, Burkholderia cepacia
Method: (§1) A typical cosmetic emulsion was prepared for microbiological challenge testing and predetermined admixtures of a methylol compound and IPBC were added at various use levels. The emulsion thus prepared had the following composition:
(§2) The challenge tests were carried out using the following microorganisms: SA, ECOLI, PSA, PC, AN and CAN, in this manner. 50 g aliquots of the test emulsion containing various amounts of the preservative admixture were inoculated with approximately 10^7–10^8 of the challenge organisms. The test samples then were stirred to disperse the challenge inoculum. The samples were incubated and assayed at 48 hours, 7, 14, 21 and 28 days. The assays were performed on 1 g of the test sample by serially diluting 10^1 to 10^6 of the original concentration. The plating medium for bacteria was Letheen agar and for fungi it was low pH Mycophil agar with Tween 20. Each plated sample was incubated for 48 hours at 37° C. for bacteria, 5 days at 25° C. for mold, and 3 days at 25° C. for fungi. After incubation, readings of the number of colonies per milliliter (cfu/ml) were made. At 21 days the test product was reinoculated with half of the original inoculum.

CAN (Candida albicans) = assay: Preservative challenge test, screening emulsion; assay type: cell-based
Method: as §1
(§3) To prepare the emulsion, Phases A and B were heated separately to 75°–80° C. Phase A then was added to Phase B with mixing. The mixture then was cooled to 55°–60° C. At this point the desired amount of the preservative admixture was added and the product was cooled to 50° C. while stirring. The citric acid solution then was added to adjust the pH and the mixture was stirred until a temperature of 30° C. was reached.
as §2

[2] = system: SA (Staphylococcus aureus); assay: Preservative challenge test, screening emulsion; assay type: cell-based
Method: as §1, §3, §2

AN (Aspergillus niger) = assay: Preservative challenge test, screening emulsion; assay type: cell-based
Method: as §1, §3, §2

[3] = system: EC (ECOLI, Escherichia coli); assay: Preservative challenge test, screening emulsion; assay type: cell-based
Method: as §1, §3, §2

[4] = system: PSA (Pseudomonas aeruginosa); assay: Preservative challenge test, screening emulsion; assay type: cell-based
Method: as §1, §3, §2

BC (B. cepacia) [5] = assay: Preservative challenge test, screening emulsion; assay type: cell-based, Burkholderia cepacia
Method: as §1, §3, §2

C. Albican ATTC1023 = assay: Activity against yeast and mold, 0.3% test solutions; assay type: cell-based, Candida albicans; parameters: key: + Growth; − No Growth
Source text: Activity against yeast and mold:

O=C1C(N(CO)C(=O)NCO)N(CO)C(=O)N1CO (centres unmarked) [Germall II]
cfu/ml, 48 hrs (BC (B. cepacia) [1]; 2000 ppm): <10 cfu/ml
cfu/ml, 7 days (BC (B. cepacia) [1]; 2000 ppm): <10 cfu/ml
cfu/ml, 14 days (BC (B. cepacia) [1]; 2000 ppm): <10 cfu/ml
cfu/ml, 21 days (BC (B. cepacia) [1]; 2000 ppm): <10 cfu/ml
cfu/ml, 28 days (BC (B. cepacia) [1]; 2000 ppm): <10 cfu/ml
cfu/ml, 48 hrs (BC (B. cepacia) [1]; 4000 ppm): <10 cfu/ml
cfu/ml, 7 days (BC (B. cepacia) [1]; 4000 ppm): <10 cfu/ml
cfu/ml, 14 days (BC (B. cepacia) [1]; 4000 ppm): <10 cfu/ml
cfu/ml, 21 days (BC (B. cepacia) [1]; 4000 ppm): <10 cfu/ml
cfu/ml, 28 days (BC (B. cepacia) [1]; 4000 ppm): <10 cfu/ml
cfu/ml, 48 hrs (CAN (Candida albicans); 250 ppm): 290,000 cfu/ml
cfu/ml, 7 days (CAN (Candida albicans); 250 ppm): 170,000 cfu/ml
cfu/ml, 14 days (CAN (Candida albicans); 250 ppm): 71,000 cfu/ml
cfu/ml, 21 days (CAN (Candida albicans); 250 ppm): 46,000 cfu/ml
cfu/ml, 28 days (CAN (Candida albicans); 250 ppm): 680,000 cfu/ml
cfu/ml, 48 hrs (CAN (Candida albicans); 500 ppm): 170,000 cfu/ml
cfu/ml, 7 days (CAN (Candida albicans); 500 ppm): 100,000 cfu/ml
cfu/ml, 14 days (CAN (Candida albicans); 500 ppm): 90,000 cfu/ml
cfu/ml, 21 days (CAN (Candida albicans); 500 ppm): 320,000 cfu/ml
cfu/ml, 28 days (CAN (Candida albicans); 500 ppm): 930,000 cfu/ml
cfu/ml, 48 hrs (CAN (Candida albicans); 1000 ppm): 160,000 cfu/ml
cfu/ml, 7 days (CAN (Candida albicans); 1000 ppm): 78,000 cfu/ml
cfu/ml, 14 days (CAN (Candida albicans); 1000 ppm): 63,000 cfu/ml
cfu/ml, 21 days (CAN (Candida albicans); 1000 ppm): 260,000 cfu/ml
cfu/ml, 28 days (CAN (Candida albicans); 1000 ppm): 210,000 cfu/ml
cfu/ml, 48 hrs (CAN (Candida albicans); 2000 ppm): 150 cfu/ml
cfu/ml, 7 days (CAN (Candida albicans); 2000 ppm): 9,600 cfu/ml
cfu/ml, 14 days (CAN (Candida albicans); 2000 ppm): 48,900 cfu/ml
cfu/ml, 21 days (CAN (Candida albicans); 2000 ppm): 490,000 cfu/ml
cfu/ml, 28 days (CAN (Candida albicans); 2000 ppm): 210,000 cfu/ml
cfu/ml, 48 hrs ([2]; 250 ppm): 55,000 cfu/ml
cfu/ml, 7 days ([2]; 250 ppm): <10 cfu/ml
cfu/ml, 14 days ([2]; 250 ppm): <10 cfu/ml
cfu/ml, 21 days ([2]; 250 ppm): <10 cfu/ml
cfu/ml, 28 days ([2]; 250 ppm): <10 cfu/ml
cfu/ml, 48 hrs ([2]; 500 ppm): 17,000 cfu/ml
cfu/ml, 7 days ([2]; 500 ppm): <10 cfu/ml
cfu/ml, 14 days ([2]; 500 ppm): <10 cfu/ml
cfu/ml, 21 days ([2]; 500 ppm): <10 cfu/ml
cfu/ml, 28 days ([2]; 500 ppm): <10 cfu/ml
cfu/ml, 48 hrs ([2]; 1000 ppm): <10 cfu/ml
cfu/ml, 7 days ([2]; 1000 ppm): <10 cfu/ml
cfu/ml, 14 days ([2]; 1000 ppm): <10 cfu/ml
cfu/ml, 21 days ([2]; 1000 ppm): <10 cfu/ml
cfu/ml, 28 days ([2]; 1000 ppm): <10 cfu/ml
cfu/ml, 48 hrs ([2]; 2000 ppm): <10 cfu/ml
cfu/ml, 7 days ([2]; 2000 ppm): <10 cfu/ml
cfu/ml, 14 days ([2]; 2000 ppm): <10 cfu/ml
cfu/ml, 21 days ([2]; 2000 ppm): <10 cfu/ml
cfu/ml, 28 days ([2]; 2000 ppm): <10 cfu/ml
cfu/ml, 48 hrs (AN (Aspergillus niger); 250 ppm): 50,000 cfu/ml
cfu/ml, 7 days (AN (Aspergillus niger); 250 ppm): <10 cfu/ml
cfu/ml, 14 days (AN (Aspergillus niger); 250 ppm): <10 cfu/ml
cfu/ml, 21 days (AN (Aspergillus niger); 250 ppm): <10 cfu/ml
cfu/ml, 28 days (AN (Aspergillus niger); 250 ppm): 100 cfu/ml
cfu/ml, 48 hrs (AN (Aspergillus niger); 500 ppm): 40 cfu/ml
cfu/ml, 7 days (AN (Aspergillus niger); 500 ppm): <10 cfu/ml
cfu/ml, 14 days (AN (Aspergillus niger); 500 ppm): <10 cfu/ml
cfu/ml, 21 days (AN (Aspergillus niger); 500 ppm): <10 cfu/ml
cfu/ml, 28 days (AN (Aspergillus niger); 500 ppm): <10 cfu/ml
cfu/ml, 48 hrs (AN (Aspergillus niger); 1000 ppm): <10 cfu/ml
cfu/ml, 7 days (AN (Aspergillus niger); 1000 ppm): <10 cfu/ml
cfu/ml, 14 days (AN (Aspergillus niger); 1000 ppm): <10 cfu/ml
cfu/ml, 21 days (AN (Aspergillus niger); 1000 ppm): <10 cfu/ml
cfu/ml, 28 days (AN (Aspergillus niger); 1000 ppm): <10 cfu/ml
cfu/ml, 48 hrs (AN (Aspergillus niger); 2000 ppm): <10 cfu/ml
cfu/ml, 7 days (AN (Aspergillus niger); 2000 ppm): <10 cfu/ml
cfu/ml, 14 days (AN (Aspergillus niger); 2000 ppm): <10 cfu/ml
cfu/ml, 21 days (AN (Aspergillus niger); 2000 ppm): <10 cfu/ml
cfu/ml, 28 days (AN (Aspergillus niger); 2000 ppm): <10 cfu/ml
cfu/ml, 48 hrs ([3]; 250 ppm): 5500 cfu/ml
cfu/ml, 7 days ([3]; 250 ppm): <10 cfu/ml
cfu/ml, 14 days ([3]; 250 ppm): <10 cfu/ml
cfu/ml, 21 days ([3]; 250 ppm): <10 cfu/ml
cfu/ml, 28 days ([3]; 250 ppm): <10 cfu/ml
cfu/ml, 48 hrs ([3]; 500 ppm): 610 cfu/ml
cfu/ml, 7 days ([3]; 500 ppm): <10 cfu/ml
cfu/ml, 14 days ([3]; 500 ppm): <10 cfu/ml
cfu/ml, 21 days ([3]; 500 ppm): <10 cfu/ml
cfu/ml, 28 days ([3]; 500 ppm): <10 cfu/ml
cfu/ml, 48 hrs ([3]; 1000 ppm): <10 cfu/ml
cfu/ml, 7 days ([3]; 1000 ppm): <10 cfu/ml
cfu/ml, 14 days ([3]; 1000 ppm): <10 cfu/ml
cfu/ml, 21 days ([3]; 1000 ppm): <10 cfu/ml
cfu/ml, 28 days ([3]; 1000 ppm): <10 cfu/ml
cfu/ml, 48 hrs ([3]; 2000 ppm): <10 cfu/ml
cfu/ml, 7 days ([3]; 2000 ppm): <10 cfu/ml
cfu/ml, 14 days ([3]; 2000 ppm): <10 cfu/ml
cfu/ml, 21 days ([3]; 2000 ppm): <10 cfu/ml
cfu/ml, 28 days ([3]; 2000 ppm): <10 cfu/ml
cfu/ml, 48 hrs ([4]; 250 ppm): <10 cfu/ml
cfu/ml, 7 days ([4]; 250 ppm): <10 cfu/ml
cfu/ml, 14 days ([4]; 250 ppm): <10 cfu/ml
cfu/ml, 21 days ([4]; 250 ppm): <10 cfu/ml
cfu/ml, 28 days ([4]; 250 ppm): <10 cfu/ml
cfu/ml, 48 hrs ([4]; 500 ppm): <10 cfu/ml
cfu/ml, 7 days ([4]; 500 ppm): <10 cfu/ml
cfu/ml, 14 days ([4]; 500 ppm): <10 cfu/ml
cfu/ml, 21 days ([4]; 500 ppm): <10 cfu/ml
cfu/ml, 28 days ([4]; 500 ppm): <10 cfu/ml
cfu/ml, 48 hrs ([4]; 1000 ppm): <10 cfu/ml
cfu/ml, 7 days ([4]; 1000 ppm): <10 cfu/ml
cfu/ml, 14 days ([4]; 1000 ppm): <10 cfu/ml
cfu/ml, 21 days ([4]; 1000 ppm): <10 cfu/ml
cfu/ml, 28 days ([4]; 1000 ppm): <10 cfu/ml
cfu/ml, 48 hrs ([4]; 2000 ppm): <10 cfu/ml
cfu/ml, 7 days ([4]; 2000 ppm): <10 cfu/ml
cfu/ml, 14 days ([4]; 2000 ppm): <10 cfu/ml
cfu/ml, 21 days ([4]; 2000 ppm): <10 cfu/ml
cfu/ml, 28 days ([4]; 2000 ppm): <10 cfu/ml
cfu/ml, 48 hrs (BC (B. cepacia) [5]; 250 ppm): <10 cfu/ml
cfu/ml, 7 days (BC (B. cepacia) [5]; 250 ppm): <10 cfu/ml
cfu/ml, 14 days (BC (B. cepacia) [5]; 250 ppm): <10 cfu/ml
cfu/ml, 21 days (BC (B. cepacia) [5]; 250 ppm): <10 cfu/ml
cfu/ml, 28 days (BC (B. cepacia) [5]; 250 ppm): <10 cfu/ml
cfu/ml, 48 hrs (BC (B. cepacia) [5]; 500 ppm): <10 cfu/ml
cfu/ml, 7 days (BC (B. cepacia) [5]; 500 ppm): <10 cfu/ml
cfu/ml, 14 days (BC (B. cepacia) [5]; 500 ppm): <10 cfu/ml
cfu/ml, 21 days (BC (B. cepacia) [5]; 500 ppm): <10 cfu/ml
cfu/ml, 28 days (BC (B. cepacia) [5]; 500 ppm): <10 cfu/ml
cfu/ml, 48 hrs (BC (B. cepacia) [5]; 1000 ppm): <10 cfu/ml
cfu/ml, 7 days (BC (B. cepacia) [5]; 1000 ppm): <10 cfu/ml
cfu/ml, 14 days (BC (B. cepacia) [5]; 1000 ppm): <10 cfu/ml
cfu/ml, 21 days (BC (B. cepacia) [5]; 1000 ppm): <10 cfu/ml
cfu/ml, 28 days (BC (B. cepacia) [5]; 1000 ppm): <10 cfu/ml
cfu/ml, 48 hrs (BC (B. cepacia) [5]; 2000 ppm): <10 cfu/ml
cfu/ml, 7 days (BC (B. cepacia) [5]; 2000 ppm): <10 cfu/ml
cfu/ml, 14 days (BC (B. cepacia) [5]; 2000 ppm): <10 cfu/ml
cfu/ml, 21 days (BC (B. cepacia) [5]; 2000 ppm): <10 cfu/ml
cfu/ml, 28 days (BC (B. cepacia) [5]; 2000 ppm): <10 cfu/ml
Growth, C. Albican ATTC1023 (C. Albican ATTC1023): −
